The assay deals with MDA-MB-468 breast. Description: growth of human tumour cells (NCI), 48 h.

Values joined by “and” are separate entries in the source; they are usually repeats but may differ in a detail not shown here. Equal entries are not always repeated.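 Five compound concentrations were applied to cells in 96-well plates for 48 hours; endpoints were derived by simple linear interpolation of the resulting dose-response curve. Abbreviation: GI50, concentration required for 50% inhibition of growth. TGI: concentration producing complete growth inhibition.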

`CCNNC(=O)[C@@H]1[C@H](c2cc(OC)c(OC)c(OC)c2)c2cc3c(cc2[C@H](O)[C@H]1CO)OCO3`: the GI50 is 0.281 µM.
Take `CN1C[C@@H]2Cn3c(c(C4=C(c5cn(C)c6ccccc56)C(=O)NC4=O)c4ccccc43)C[C@H]2C1`: the GI50 is 4.04 µM and 3.06 µM; the TGI was 9.12 µM and 6.64 µM.
For `CCCCCCCCCCCCCCCCCCOc1ccccc1CC(=O)NCC[N+](C)(C)C`, the GI50 was 2.47 µM and the TGI turned out to be 6.28 µM.
With `Cn1cnc2c(F)c(Nc3ccc(Br)cc3F)c(C(=O)NOCCO)cc21`, the GI50 was 26.9 µM and the TGI is above 83.4 µM.
Turning to `CC(=O)Nc1ccc(NC(=O)Nc2cccc(-c3nc(-c4ccc(NC(=O)c5cccnc5)cc4Cl)no3)c2)cc1C(F)(F)F`, the GI50 was 0.234 µM and the TGI stood at 0.758 µM.
Take `COc1cc(C2CC(=O)Nc3c2ccc2ccccc32)cc(Br)c1OC` (configuration not stated): the GI50 was 0.285 µM and the TGI is 0.969 µM.
In the case of `NC(=O)c1ccccc1NC(=O)c1ccccc1Cl`, the GI50 was above 100 µM and the TGI is above 100 µM.
Turning to `O=C(COc1cccc(/C=C2\Oc3ccc4ccccc4c3C2=O)c1)c1ccc(Cl)cc1`, the GI50 is 9.62 µM and the TGI came to 43.3 µM.
The corresponding values for `COc1ccc(Cn2cc3c(c2-c2cc(OC)c(OC)c(OC)c2)CCc2cnoc2-3)cc1N` are 0.0251 µM and 0.0735 µM.
For `Cc1ccc(Nc2cc(C)nc(NCCCNc3ccnc4cc(Cl)ccc34)n2)cc1`, in that order: 1.43 µM and 2.92 µM.
The corresponding values for `C[C@@H](COCCC(=O)N1CCN(c2ncc(C(F)(F)F)cn2)CC1)Nc1cn[nH]c(=O)c1C(F)(F)F` are 17.9 µM and above 100 µM.
For `N#C/C(=C\c1c(-c2ccccc2)[nH]c2ccccc12)C(=O)c1ccccc1`, the GI50 was 5.56 µM and the TGI is above 100 µM.
Consider `COC(=O)[C@]12CC[C@@H](C)[C@H](C)[C@@H]1C1=CC[C@@H]3[C@@]4(C)C(C=O)=C[C@@](C)(COS(C)(=O)=O)C4[C@H](O)C[C@@]3(C)[C@]1(C)CC2` (some centres not stated), for which the GI50 is 2.08 µM and the TGI came out at 4.1 µM.
For the compound `COc1ccc(-c2cc(-c3cccc(NS(C)(=O)=O)c3)nc(N)c2C#N)cc1`, the GI50 was 1.35 µM and the TGI came to 6.64 µM.
Consider `Cc1ncc(C(=O)Nc2ccc(CN3CCN(C)CC3)c(C(F)(F)F)c2)cc1C#Cc1c(N)ncc2ccccc12`, for which the GI50 is 0.577 µM and the TGI was 1.15 µM.
As for `Nc1nccc2c1ncn2C1OC(CO)C(O)C1O` (configuration not stated), the GI50 was above 100 µM and the TGI was above 100 µM.
As to `COC(=O)[C@H](C)NC(=O)[C@@H](OC)[C@@H]1Cc2cc3cc(OC4CC(OC5CC(O)C(O)C(C)O5)C(O)C(C)O4)c(C)c(O)c3c(O)c2C(=O)[C@H]1OC1CC(OC2CC(OC3CC(C)(O)C(O)C(C)O3)C(O)C(C)O2)C(O)C(C)O1` (some centres not stated), the GI50 was 0.112 µM and the TGI was 1.07 µM.
The corresponding values for `COc1cccc(CCC(=O)c2cc3c(N)c(C(=O)Nc4cccc(Cl)c4C)sc3nc2C)c1` are 0.288 µM and 2.82 µM.
For `CC(C)C[C@H](NC(=O)[C@@H](NC(=O)c1cccc(-c2ccccc2)n1)[C@@H](C)O)B(O)O`, in that order: 0.00244 µM and 0.00685 µM.
For `CCOc1nccc2c1nc(-c1nonc1N)n2CC`, the GI50 was above 25 µM and the TGI was above 25 µM.
Turning to `Nc1ccc(C(OC(=O)c2cc3ccccc3c(Cc3c(O)c(C(=O)OC(c4ccc(N)cc4)(c4ccc(N)cc4)c4ccc(N)cc4)cc4ccccc34)c2O)(c2ccc(N)cc2)c2ccc(N)cc2)cc1`, the GI50 is 0.252 µM and the TGI was determined as 2.13 µM.
Regarding `COc1cc(F)c(/C=C/c2cc(/C=C/c3cc(OC)c(OC)cc3F)n(-c3cc(F)cc(F)c3)n2)cc1OC`, the GI50 was 2.39 µM and the TGI turned out to be 5.72 µM.
For `COc1c(Cl)ccc2c(-c3nc4cc(Cl)c(F)cc4s3)cc(=O)oc12`, in that order: 4.89 µM and 34.4 µM.
With `CSc1ccc(SC2c3ccc(C)cc3Oc3nc(N)c(C#N)c(N)c32)cc1` (configuration not stated), the GI50 is 1.74 µM and the TGI turned out to be 3.81 µM.
On to `CCOC(=O)C(=CN1CCNC1=S)C(=O)OCC`, for which the GI50 is above 100 µM and the TGI was above 100 µM.
On to `Clc1ccc(CNc2nccc(-c3cnn4ncccc34)n2)cc1`, for which the GI50 is 5.62 µM and the TGI amounted to 12.7 µM.
Regarding `O=C(N/N=C/c1ccc(Cl)cc1Cl)c1ccc2nc(-c3ccc(Cl)cc3)[nH]c2c1`, the GI50 was 1.64 µM and the TGI is 3.23 µM.
In the case of `Cc1cc(C)c(S(=O)(=O)N(CCc2cccc(Br)c2)Cc2ccc(-c3cccc(S(C)(=O)=O)c3)cc2)c(C)c1`, the GI50 was above 100 µM and the TGI was above 100 µM.
For the compound `CC(C)C[C@H](NC(=O)CCn1ccc2ncccc2c1=O)B(O)O`, the GI50 is 2.35 µM and the TGI was 14.4 µM.
The corresponding values for `CCN(CC)CCn1c2ccc(OC)cc2c2sc3cc(OC)ccc3c(=O)c21` are 1.56 µM and 3.21 µM.
For the compound `COc1cc(NC(=O)NCc2ccco2)ccc1-c1ccc(NC(=O)NCc2ccco2)cc1OC`, the GI50 was 1.82 µM and the TGI amounted to 4.61 µM.
Take `Cc1cc(N(CCCNc2ccnc3cc(Cl)ccc23)Cc2ccc3c(c2)OCO3)nc(N2CCCCC2)n1`: the GI50 is 1.95 µM and the TGI was 4.67 µM.
For `COc1cccc(C2SC(C)C(=O)N2CCc2cccs2)c1` (configuration not stated), in that order: 2.25 µM and 7.32 µM.
As to `COc1ccc(-c2ccc(-c3ccc(C(=N)N)cn3)o2)cc1Cl`, the GI50 is 1.84 µM and the TGI was determined as 3.51 µM.

Values taken from PubChem BioAssay (NCI).
